Data set [1] in a line: Relative water solubility of the steroids. The class given is physicochemical.
The conditions of data set [2]: in vivo; cited from earlier work.
Data set [3] can be described thus: In vivo fluocinolone acetonide levels in rabbit eyes after intravitreal implant. The protocol: The in vivo study was conducted on four rabbits. The fluocinolone-containing implants were surgically implanted into the posterior segment (i.e., the vitreous) of the right eye (OD) and left eye (OS) of each rabbit. The aqueous humor (15-20 μL) and the vitreous humor (150-200 μL) were withdrawn for the first two rabbits, while the sampling for the remaining two rabbits was determined by a sampling schedule wherein the sampling days were days 7, 14, 21, 40, and 60, 90, and 120.

Read-outs that look alike come from different tables or passages of the source.

Turning to `CC1(C)O[C@@H]2C[C@H]3[C@@H]4CCC5=CC(=O)C=C[C@]5(C)[C@@]4(F)[C@@H](O)C[C@]3(C)[C@]2(C(=O)CO)O1` [triamcinalone acetonide], the “water solubility, times more soluble than beclomethasone dipropionate” value in data set [1] is “about 150 times”.

Take `CC(C)OC(=O)CCC/C=C\C[C@@H]1[C@@H](CC[C@@H](O)CCc2ccccc2)[C@H](O)C[C@@H]1O` [latanoprost]: the “human eyes with increase in brown pigment in the iris” value in data set [2] was 5-15%.

As to `CC1(C)O[C@@H]2C[C@H]3[C@@H]4C[C@H](F)C5=CC(=O)C=C[C@]5(C)[C@@]4(F)[C@@H](O)C[C@]3(C)[C@]2(C(=O)CO)O1` [Fluocinolone acetonide, 1,4-pregnadien-6α, 9α-difluoro-11β, 16α,17,21-tetrol-3,20-dione 16,17-acetonide], the “fluocinolone acetonide level in anterior chamber / aqueous humor” value in data set [3] (implant configuration #29, any time point) is recorded as “not detected”. Also, the “Fluocinolone (ng/mL) in vitreous humor, single eye” value in data set [3] (intravitreal implant configuration #29, day 40) was determined as 40.80 ng/mL. Besides, in data set [3] (vitreous humor, intravitreal implant configuration #29, day 7), the concentration at 7 day is 95.9 ng/mL. The same compound registered a concentration at 14 day in data set [3] (vitreous humor, intravitreal implant configuration #29, day 14) of 50.9 ng/mL. Further, the concentration at 21 day in data set [3] (vitreous humor, intravitreal implant configuration #29, day 21) was 45.7 ng/mL. Further, the concentration at 40 day turned out to be 42.4 ng/mL in data set [3] (vitreous humor, intravitreal implant configuration #29, day 40, read-out: Fluocinolone (ng/mL) in vitreous humor, Average) and 44 ng/mL in data set [3] (vitreous humor, intravitreal implant configuration #29, day 40, read-out: Fluocinolone (ng/mL) in vitreous humor, single eye). In data set [3] (vitreous humor, intravitreal implant configuration #29, day 60), this compound registered a concentration at 60 day of 50.6 ng/mL. The same compound came in with a concentration at 90 day in data set [3] (vitreous humor, intravitreal implant configuration #29, day 90) of 36.1 ng/mL. Further, in data set [3] (vitreous humor, intravitreal implant configuration #29, day 120), the concentration at 120 day came out at 28.1 ng/mL.

The values above are taken from US9327059B2, “Steroid-containing sustained release intraocular implants and related methods” (Allergan, Inc., priority 2004, dated 2016).
